According to ChEMBL document CHEMBL4184231, “Selective inhibition of monoamine oxidase A by hispidol” (Bioorg Med Chem Lett, 2018):
One block for each molecule: values may come before it.

Tests used:
[1] = target: T1, Amine oxidase [flavin-containing] A (Homo sapiens, UniProt P21397); test: Competitive inhibition of human recombinant MAOA using 0.006 to […] kynuramine as substrate preincubated for 30 mins followed by substrate addition by Lineweaver-Burk plot
T1 sequence (P21397 whole entry): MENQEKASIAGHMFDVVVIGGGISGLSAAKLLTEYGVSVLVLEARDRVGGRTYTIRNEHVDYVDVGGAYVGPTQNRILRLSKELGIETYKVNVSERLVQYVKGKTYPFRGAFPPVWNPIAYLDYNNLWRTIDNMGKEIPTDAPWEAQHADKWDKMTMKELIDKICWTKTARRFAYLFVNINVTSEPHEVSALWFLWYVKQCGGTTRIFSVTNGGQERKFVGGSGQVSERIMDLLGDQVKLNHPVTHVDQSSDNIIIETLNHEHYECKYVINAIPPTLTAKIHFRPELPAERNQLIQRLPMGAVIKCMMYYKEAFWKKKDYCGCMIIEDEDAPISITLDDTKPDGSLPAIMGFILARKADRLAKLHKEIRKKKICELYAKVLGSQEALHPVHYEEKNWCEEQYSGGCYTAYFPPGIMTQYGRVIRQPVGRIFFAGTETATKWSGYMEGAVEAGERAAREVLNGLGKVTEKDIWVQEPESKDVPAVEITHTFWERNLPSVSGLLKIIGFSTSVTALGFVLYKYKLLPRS

[2] = target: T1, Amine oxidase [flavin-containing] A; test: Inhibition of human recombinant MAOA assessed as residual enzyme activity at 0.5 uM pre-incubated for 30 mins followed by 0.06 mM kynuramine substrate addition; conditions: read-out: INH
[3] = target: T1, Amine oxidase [flavin-containing] A; test: Inhibition of human recombinant MAOA using kynuramine as substrate preincubated for 30 mins followed by substrate addition
[4] = target: T1, Amine oxidase [flavin-containing] A; test: Reversible inhibition of human recombinant MAOA assessed as residual enzyme activity at 0.5 uM pre-incubated with enzyme for 30 mins followed by dialysis with pH 7.2 sodium phosphate buffer for 6 hrs followed by 0.06 mM kynuramine substrate addition; conditions: read-out: INH
[5] = target: T2, Amine oxidase [flavin-containing] B (Homo sapiens, UniProt P27338); test: Inhibition of human recombinant MAOB assessed as residual enzyme activity at 5 uM pre-incubated for 30 mins followed by 0.06 mM benzylamine substrate addition
T2 sequence (P27338 whole entry): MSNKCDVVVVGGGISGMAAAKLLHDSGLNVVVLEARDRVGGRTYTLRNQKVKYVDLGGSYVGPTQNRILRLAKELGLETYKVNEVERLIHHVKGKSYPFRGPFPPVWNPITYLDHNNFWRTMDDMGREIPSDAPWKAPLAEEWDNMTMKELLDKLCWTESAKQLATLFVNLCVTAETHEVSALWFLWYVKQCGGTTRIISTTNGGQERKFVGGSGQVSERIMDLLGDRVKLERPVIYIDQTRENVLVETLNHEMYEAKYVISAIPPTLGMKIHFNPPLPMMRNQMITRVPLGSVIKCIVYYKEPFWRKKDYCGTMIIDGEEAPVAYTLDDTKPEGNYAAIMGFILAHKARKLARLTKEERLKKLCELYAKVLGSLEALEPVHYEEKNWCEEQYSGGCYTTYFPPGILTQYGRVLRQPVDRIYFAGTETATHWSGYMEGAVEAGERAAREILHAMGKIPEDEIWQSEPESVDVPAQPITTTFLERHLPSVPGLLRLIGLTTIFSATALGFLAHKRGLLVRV

[6] = target: T1, Amine oxidase [flavin-containing] A; test: Time dependent inhibition of human recombinant MAOA using kynuramine as substrate preincubated for up to 30 mins followed by substrate addition
[7] = target: T2, Amine oxidase [flavin-containing] B; test: Reversible inhibition of human recombinant MAOB assessed as residual enzyme activity at 5 uM pre-incubated with enzyme for 30 mins followed by dialysis with pH 7.2 sodium phosphate buffer for 6 hrs followed by 0.06 mM benzylamine substrate addition; conditions: pH 7.2, 6 h
[8] = target: T1, Amine oxidase [flavin-containing] A; test: Irreversible inhibition of human recombinant MAOA assessed as residual enzyme activity at 0.01 uM pre-incubated with enzyme for 30 mins followed by dialysis with pH 7.2 sodium phosphate buffer for 6 hrs followed by 0.06 mM kynuramine substrate addition; conditions: read-out: Activity
[9] = target: T1, Amine oxidase [flavin-containing] A; test: Inhibition of human recombinant MAOA assessed as residual enzyme activity at 0.01 uM pre-incubated for 30 mins followed by 0.06 mM kynuramine substrate addition; conditions: read-out: Activity
[10] = target: T2, Amine oxidase [flavin-containing] B; test: Reversible inhibition of human recombinant MAOB assessed as residual enzyme activity at 2 times IC50 pre-incubated with enzyme for 30 mins followed by dialysis with pH 7.2 sodium phosphate buffer for 6 hrs followed by 0.06 mM benzylamine substrate addition; conditions: pH 7.2, 6 h
[11] = target: T2, Amine oxidase [flavin-containing] B; test: Inhibition of human recombinant MAOB assessed as residual enzyme activity at 2 time IC50 pre-incubated for 30 mins followed by 0.06 mM benzylamine substrate addition
[12] = target: T2, Amine oxidase [flavin-containing] B; test: Inhibition of human recombinant MAOB at 80 uM using benzylamine as substrate preincubated for 30 mins followed by substrate addition
[13] = target: T2, Amine oxidase [flavin-containing] B; test: Inhibition of human recombinant MAOB using benzylamine as substrate preincubated for 30 mins followed by substrate addition
Homo sapiens = organism: Homo sapiens; test: Selectivity index, ratio of IC50 for human recombinant MAOB to IC50 for human recombinant MAOA
[14] = target: T1, Amine oxidase [flavin-containing] A; test: Reversible inhibition of human recombinant MAOA assessed as residual enzyme activity at 2 uM pre-incubated with enzyme for 30 mins followed by dialysis with pH 7.2 sodium phosphate buffer for 6 hrs followed by 0.06 mM kynuramine substrate addition; conditions: read-out: Activity
[15] = target: T1, Amine oxidase [flavin-containing] A; test: Inhibition of human recombinant MAOA assessed as residual enzyme activity at 2 uM pre-incubated for 30 mins followed by 0.06 mM kynuramine substrate addition; conditions: read-out: Activity

Ki [1]: 0.1 µM
activity at 0.5 µM [2]: 29.8%
IC50 [3]: 0.26 µM
activity at 0.5 µM [4]: 83.7%
Activity [5]: 87.5%
TDI [6]: Not Active
Activity [7]: 28%
Compound: O=C1/C(=C/c2ccc(O)cc2)Oc2cc(O)ccc21

Compound: COc1cc(O)c2c(=O)oc3cc(O)cc(C)c3c2c1
IC50 [3]: 1.71 µM

IC50 [3]: 0.19 µM
Compound: COc1ccc(-c2cc(=O)c3c(O)cc(O)cc3o2)cc1 [ACACETIN]

Compound: O=c1cc(-c2ccc(O)cc2)oc2cc(O)cc(O)c12 [APIGENIN]
IC50 [3]: 1.55 µM

Compound: C#CCN(C)CCCOc1ccc(Cl)cc1Cl [CLORGILINE]
activity at 0.01 µM [8]: 17.3%
activity at 0.01 µM [9]: 18.3%

IC50 [3]: 1.76 µM
Compound: CC(C)=CC(=O)O[C@H]1Cc2cc3ccc(=O)oc3cc2OC1(C)C [DECURSIN]

Compound: NCCNC(=O)c1ccc(Cl)cn1 [LAZABEMIDE]
Activity [10]: 35%
Activity [11]: 72.9%

IC50 [3]: 4.16 µM
inhibition at 80 µM [12]: 20.8%
IC50 [13]: > 80 µM
Ratio IC50 (Homo sapiens): > 19.2
TDI [6]: Not Active
Compound: O=C1/C(=C/c2ccc(O)c(O)c2)Oc2cc(O)ccc21 [SULFURETIN]

Compound: Cc1cccc(N2CC(CO)OC2=O)c1 (configuration not stated) [TOLOXATONE]
activity at 2 µM [14]: 30.7%
activity at 2 µM [15]: 75.4%
